Calls of active or inactive are those of the source.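 Rule for the calls: active = chemicals shown by follow-up kinetic tests to compete for rat estrogen receptor sites, with a measured inhibition constant; inconclusive = some binding seen but constant unmeasurable owing to poor solubility; inactive = no binding up to top dose, or binding unconfirmed.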
biological target: Estrogen receptor (Rattus norvegicus) (UniProt P06211); assay: DSSTox (KIERBL) EPA Estrogen Receptor Ki Binding Study (Laws et al.) Database; conditions: Rat uterine cytosol ER, 3H-estradiol competitive binding
Sequence (P06211 whole entry, looked up): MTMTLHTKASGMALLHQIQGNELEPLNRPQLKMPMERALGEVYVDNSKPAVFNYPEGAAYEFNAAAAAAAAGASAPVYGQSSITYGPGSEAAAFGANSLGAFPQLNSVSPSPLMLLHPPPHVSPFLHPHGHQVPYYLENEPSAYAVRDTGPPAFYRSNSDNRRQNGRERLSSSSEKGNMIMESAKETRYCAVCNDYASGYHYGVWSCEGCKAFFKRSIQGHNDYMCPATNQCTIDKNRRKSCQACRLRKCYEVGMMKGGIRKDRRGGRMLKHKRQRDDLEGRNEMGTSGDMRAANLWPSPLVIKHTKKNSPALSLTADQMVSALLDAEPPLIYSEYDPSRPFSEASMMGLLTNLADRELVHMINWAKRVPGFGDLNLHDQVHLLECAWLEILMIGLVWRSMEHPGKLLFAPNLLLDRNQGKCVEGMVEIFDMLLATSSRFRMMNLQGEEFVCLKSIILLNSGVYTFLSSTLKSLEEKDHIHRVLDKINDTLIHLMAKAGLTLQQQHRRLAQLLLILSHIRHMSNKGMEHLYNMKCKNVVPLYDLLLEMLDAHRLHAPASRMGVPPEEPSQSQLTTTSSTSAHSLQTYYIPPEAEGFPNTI
Procedure: This study was conducted by EPA researchers to evaluate the validity of the rat uterine cytosolic (RUC) estrogen receptor (ER) competitive binding assay for use in the Endocrine Disruption Screening Program (EDSP). The assay measures the ability of radiolabeled 17-beta-estradiol (3H-E2) to bind with RUC ER in the presence of increasing concentrations of a test chemical. The goal is to employ this in vitro assay as a 1st tier screening tool for assessing the potential of structurally diverse environmental chemicals to bind to the ER, as well as to support research efforts to develop computational models to predict ER binding. A distinguishing feature of the present study was the use of secondary experimental analysis of binding curves and determination of Ki values to confirm that measured IC50 values corresponded to true positive results. The study concluded that a number of experimental conditions can confound interpretation of IC50 values obtained from the RUC ER-binding assay data and lead to false positive results. In particular, some chemical treatments likely alter the stability of the assay by changing the buffer pH, denaturing ER, or disrupting the ER binding kinetics. […] The chemicals used in this study were selected as part of a validation test for two Quantitative Structure-Activity Relationship (QSAR) models designed to predict ER binding [Fed. Reg. 67(250), 79618, Dec. 30, 2002]. Several hundred chemicals were initially screened, including approximately 100 chemicals selected from among the High Production Volume (HPV) chemicals included in EPA's Toxic Substances Control Act (TSCA) inventory that were predicted to be positive for ER binding, with the rest selected at random from the TSCA inventory. All chemicals were initially tested in ER competitive binding assays by Battelle Pacific Northwest Laboratories, Richland, Washington [EPA Contract Number 68-W-99-033, Task 6]. Approximately 50 chemicals produced binding curves that: (1) strongly implied competitive inhibition of ER binding, or (2) produced partial curves or irregular (non-sigmoid) binding curves. These chemicals were further evaluated in an ER competitive binding assay with secondary analysis to confirm true competitive inhibition and to determine an experimental Ki [U.S. EPA Contract 3D-5967-NTEX]. The results of RUC ER screening for these 50 structurally diverse chemicals, for which secondary confirmatory analyses were performed, were published in the Main Citation (Laws et al., 2006, Tox. Sci. 94:46-56). The remaining 228 chemicals were designated as non-binders based on initial screening studies.
The DSSTox KIERBL data files include all published IC50 and Ki experimental results for the 50 chemicals included in the Main Citation (Laws et al., 2006) (denoted Group 1), as well as previously unpublished results for an additional 228 structually diverse TSCA chemicals for which no ER binding was observed (denoted Group 2. IC50 values were determined for 32 compounds in Group 1 as the concentration of a test chemical that inhibits the maximal specific binding of 0.33 nM radiolabeled (3H) 17-beta-estradiol (E2) to rat uterine cytosolic (RUC) estrogen receptor (ER) by 50%. Confirmation of binding status was accomplished by secondary analysis using Lineweaver-Burk plots and slope replots to determine true competitive inhibition and an experimental Ki value. Ki is the inhibition constant for the test chemical, i.e., the concentration of the test chemical that will bind to half the binding sites at equilibrium (displacing half of the probe-bound receptors), in the absence of radioligand or other competitors. Ki reported as Mean +/- Standard Error from n=2 experiments (see StandardError_Ki_n2) and is determined from Lineweaver-Burk plots over the tested dose range (TestedRange_microM). For more information see BindingCurve_Group and BindingCurve_Details. […]

SMILES | outcome
CC(C)(C)c1cc(C(C)(C)c2ccc(O)c(C(C)(C)C)c2)ccc1O | inactive; incomplete
Fc1cccc(Cl)c1CCl | inactive; none
CC(C)COC(=O)C(C)C | inactive; none
O=C=Nc1cccc(C(F)(F)F)c1 | inactive; none
CCCCCCCC(=O)OCC(COC(=O)CCCCCCC)OC(=O)CCCCCCC | inactive; none
CN(C)Cc1cc(CN(C)C)c(O)c(CN(C)C)c1 | inactive; none
CCCCCCCCCCCCOCCOCCO | inactive; none
O=C(Nc1ccccc1)c1cc(Cl)ccc1O | inactive; incomplete
CCCCCCCCOc1ccc(C(=O)c2ccccc2)c(O)c1 | inactive; none
CNC(=O)Oc1ccccc1OC(C)C | inactive; none
N#CCCSCCC#N | inactive; none
O=C(Oc1ccccc1)c1ccc2ccccc2c1O | inactive; none
O=S(=O)(O)c1ccc(N=Nc2c(O)ccc3ccccc23)cc1 | inactive; none
Oc1ccc(Sc2ccc(O)cc2O)c(O)c1 | inactive; incomplete
CC(C)(C)CC(C)(C)c1ccc(O)c(-n2nc3ccccc3n2)c1 | inactive; none
CN(C)c1ccc(C(=C2C=CC(=[N+](C)C)C=C2)c2ccc(N(C)C)cc2)cc1 | inactive; none
CCN(CC)c1nc(C)cc(OP(=S)(OC)OC)n1 | inactive; none
CCCCCCCCCCCCCCCCCCOC(=O)CCc1cc(C(C)(C)C)c(O)c(C(C)(C)C)c1 | inactive; none
C(=NC1CCCCC1)=NC1CCCCC1 | inactive; none
CCN(CCO)c1ccc(N=Nc2ccc([N+](=O)[O-])cc2Cl)cc1 | inactive; none
CCCCOC(=O)CCC(C)=O | inactive; none
CC(=O)c1ccc(O)cc1 | inactive; none
OCC1CC2C=CC1C2 (configuration not stated) | inactive; none

SMILES | outcome
Cc1ccc(C(=O)c2ccccc2)cc1 | inactive; incomplete
COc1ccccc1NC(=O)c1cc2ccccc2cc1O | inactive; none
CCCCNCCCCCCNCCCC | inactive; none
c1ccc(CNc2ncnc3c2ncn3C2CCCCO2)cc1 (configuration not stated) | inactive; none
CCCCOCCCOC(=O)COc1ccc(Cl)cc1Cl | inactive; none
CCCCCCC1CCC(=O)O1 (configuration not stated) | inactive; none
COc1ccc(C=O)cc1OC | inactive; incomplete
CC(C)Oc1cc(-n2nc(C(C)(C)C)oc2=O)c(Cl)cc1Cl | inactive; none
CC(C)(C)[Si](C)(C)Cl | inactive; none
CN(C)c1ccc(C(=C2C=CC(=Nc3ccccc3)c3ccccc32)c2ccc(N(C)C)cc2)cc1 | inactive; none
O=S(=O)(O)c1ccccc1Nc1ccc(C(=C2C=CC(=Nc3ccccc3)C=C2)c2ccc(Nc3ccccc3)cc2)cc1 | inactive; none
C[Si]1(C)N[Si](C)(C)N[Si](C)(C)N1 | inactive; incomplete
OCCOc1ccc(OCCO)cc1 | inactive; none
CCCCCCCC[Si](Cl)(Cl)Cl | inactive; none
C=CC(=O)OCCC(F)(F)C(F)(F)C(F)(F)C(F)(F)C(F)(F)C(F)(F)C(F)(F)C(F)(F)C(F)(F)C(F)(F)F | inactive; incomplete
CCCCCCCCCCCCCCBr | inactive; none
CCC(=O)O | inactive; none
O=C(n1ccnc1)n1ccnc1 | inactive; none
O=C(O)CCCCC(=O)O | inactive; none
C=CS(=O)(=O)O | inactive; none
Cc1cccc(C(=O)O)c1O | inactive; none
CN1CSC(=S)N(C)C1 | inactive; none
CCOC(=O)c1ccccc1C(=O)OCC | inactive; none

SMILES | outcome
O=C=NCCCCCCN=C=O | inactive; none
CCCCS | inactive; none
Cc1cc(Cc2cc(C)cc(C(C)(C)C)c2O)c(O)c(C(C)(C)C)c1 | inactive; none
COCOC | inactive; none
c1c[nH]cn1 | inactive; none
CCOC(=O)CCC(=O)OCC | inactive; none
Oc1ccc2ccccc2c1N=Nc1ccccc1 | inactive; none
C=CCCCCCCCCC=O | inactive; incomplete
CC1(C)C(C=C(Cl)Cl)C1C(=O)OC(C#N)c1cccc(Oc2ccccc2)c1 (configuration not stated) | inactive; none
CC(Cl)Cl | inactive; none
CCCCCCCCCCCCCCC(Br)C(=O)O (configuration not stated) | inactive; incomplete
O=C(Cl)c1ccccc1 | inactive; none
O=Cc1ccccc1[N+](=O)[O-] | inactive; none
C[Si](O)(O)O | inactive; none
NC(=O)c1ccc(N)cc1 | inactive; none
O=C=NCc1cccc(CN=C=O)c1 | inactive; none
CCOC(=O)c1ccccc1 | inactive; none
O=C1c2ccccc2C(=O)N1SC1CCCCC1 | inactive; none
CCOP(=S)(OCC)SCn1c(=O)oc2cc(Cl)ccc21 | inactive; none
NNC(=O)c1cccc(C(=O)NN)c1 | inactive; none
C=C(C)c1ccc(C(=C)C)cc1 | inactive; none
CCCCCCCC=O | inactive; irregular
CCCCCCCCCCCCCCCCCCN=C=O | inactive; none

SMILES | outcome
CCOc1ccc(NC(C)=O)cc1 | inactive; none
CC(C)C(=O)C(C)C | inactive; none
COC(=O)c1ccccc1S(=O)(=O)NC(=O)N(C)c1nc(C)nc(OC)n1 | inactive; none
COCCO | inactive; none
CC(C)(C)c1cc(-n2nc3ccc(Cl)cc3n2)c(O)c(C(C)(C)C)c1 | inactive; none
O=C(O[C@@H](C(=O)O)[C@@H](OC(=O)c1ccccc1)C(=O)O)c1ccccc1 | inactive; none
OCCS | inactive; none
c1ccsc1 | inactive; none
O=C(O)c1cc(O)c2ccccc2c1O | inactive; incomplete
OC1CCCCC1 | inactive; none
Nc1ccc(F)c(Cl)c1 | inactive; none
C=CC(=O)OCCC(C)OC(=O)C=C (configuration not stated) | inactive; none
O=C1CCC(=O)N1Br | inactive; none
O=CCCl | inactive; none
Cc1cc(-n2nc3ccc(Cl)cc3n2)c(O)c(C(C)(C)C)c1 | inactive; none
O=C1OS(=O)(=O)c2ccccc21 | inactive; none
O=C(O)c1ccccc1Br | inactive; none
O=NN(c1ccccc1)c1ccccc1 | inactive; none
O=C(OCc1ccccc1)c1ccccc1O | inactive; incomplete
O=Cc1ccc(F)cc1 | inactive; none

same assay, conditions: Rat uterine cytosol ER, 3H-estradiol competitive binding; TestedRange_microM: 0.5-10

SMILES | outcome
CCCCCCCCCCCCCCCCCC[N+](C)(C)CCC[Si](OC)(OC)OC | inactive; irregular

same assay, conditions: Rat uterine cytosol ER, 3H-estradiol competitive binding; TestedRange_microM: 3-30

SMILES | Potency [µM]
CC(C)(c1ccccc1)c1ccc(O)cc1 | 16.5

same assay, conditions: Rat uterine cytosol ER, 3H-estradiol competitive binding; TestedRange_microM: 10-100

SMILES | outcome | Potency [µM]
CCCCCCCCCCCCCCCCCC[N+](C)(C)C | inactive; irregular | 
COC(OC)(C(=O)c1ccccc1)c1ccccc1 |  | 136

same assay, conditions: Rat uterine cytosol ER, 3H-estradiol competitive binding; TestedRange_microM: 20-70

SMILES | Potency [µM]
CC(c1ccc(O)cc1)(c1ccc(O)cc1)c1ccc(O)cc1 | 18.3

same assay, conditions: Rat uterine cytosol ER, 3H-estradiol competitive binding; TestedRange_microM: 25-75

SMILES | Potency [µM]
O=C(OCc1ccccc1)c1ccc(O)cc1 | 34.2
CC(C)(c1ccc(O)cc1)c1ccc(O)cc1 | 24.8

same assay, conditions: Rat uterine cytosol ER, 3H-estradiol competitive binding; TestedRange_microM: 30-200

SMILES | outcome
O=C(Nc1ccc(Cl)c(Cl)c1)Nc1cc(Cl)ccc1Oc1ccc(Cl)cc1S(=O)(=O)O | inactive; partial
